The source made the active and inactive calls. The rule behind the calls is not given here.
Tests used:
[1] = molecular target: T1, Protein cereblon/Eukaryotic peptide chain release factor GTP-binding subunit ERF3A (Homo sapiens, UniProt Q96SW2+P15170); experiment: Molecular glue activity at CRBN/GSPT1 in human LNCaP cells assessed as induction of GSPT1 degradation incubated for 24 hrs by Western blot analysis; assay type: cell-based
CWR22R [2] = experiment: Downregulation of RCC2 gene expression in human 22Rv1 cells at 3 nM incubated for 24 hrs by Volcano plot analysis; assay type: functional, cell-based
[3] = molecular target: T1, Protein cereblon/Eukaryotic peptide chain release factor GTP-binding subunit ERF3A; experiment: Molecular glue activity at CRBN/GSPT1 in human 22Rv1 cells assessed as induction of GSPT1 degradation at 50 nM preincubated with MG132 followed by compound addition and measured after 12 hrs by Western blot analysis; assay type: cell-based
Target sequence in this assay (P15170 whole entry, looked up): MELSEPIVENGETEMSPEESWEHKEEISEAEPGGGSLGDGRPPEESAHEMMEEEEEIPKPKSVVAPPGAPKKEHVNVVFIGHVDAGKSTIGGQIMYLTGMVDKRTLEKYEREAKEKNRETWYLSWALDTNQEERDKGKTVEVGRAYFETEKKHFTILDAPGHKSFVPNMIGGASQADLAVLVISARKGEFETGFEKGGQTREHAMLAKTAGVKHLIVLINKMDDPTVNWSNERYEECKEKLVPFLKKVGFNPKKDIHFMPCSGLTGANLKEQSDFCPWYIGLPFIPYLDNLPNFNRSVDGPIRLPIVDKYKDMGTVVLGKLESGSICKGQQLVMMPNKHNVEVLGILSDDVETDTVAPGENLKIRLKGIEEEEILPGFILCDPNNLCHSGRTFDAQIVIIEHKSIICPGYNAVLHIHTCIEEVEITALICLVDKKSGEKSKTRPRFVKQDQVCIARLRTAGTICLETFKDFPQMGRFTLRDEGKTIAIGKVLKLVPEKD
Target sequence in this assay (Q96SW2 whole entry, looked up): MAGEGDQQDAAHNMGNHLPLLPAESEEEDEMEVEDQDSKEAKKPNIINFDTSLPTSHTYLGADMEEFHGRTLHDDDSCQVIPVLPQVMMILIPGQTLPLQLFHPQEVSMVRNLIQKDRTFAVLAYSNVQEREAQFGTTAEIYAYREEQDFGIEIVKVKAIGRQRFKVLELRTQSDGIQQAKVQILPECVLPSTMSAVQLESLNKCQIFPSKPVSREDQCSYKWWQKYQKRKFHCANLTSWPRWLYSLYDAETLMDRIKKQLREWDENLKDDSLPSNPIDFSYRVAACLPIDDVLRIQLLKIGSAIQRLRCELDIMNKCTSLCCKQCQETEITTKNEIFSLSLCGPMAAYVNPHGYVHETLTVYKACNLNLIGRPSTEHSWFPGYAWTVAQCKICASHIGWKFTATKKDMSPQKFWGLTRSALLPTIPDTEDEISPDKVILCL

[4] = molecular target: T2, Protein cereblon/Androgen receptor (Homo sapiens, UniProt P10275+Q96SW2); experiment: PROTAC activity at CRBN/AR in human 22Rv1 cells assessed as induction of AR degradation at 20 nM incubated for 24 hrs by Western blot analysis (reference value: 0 %); assay type: cell-based
Target sequence in this assay (P10275 whole entry, looked up): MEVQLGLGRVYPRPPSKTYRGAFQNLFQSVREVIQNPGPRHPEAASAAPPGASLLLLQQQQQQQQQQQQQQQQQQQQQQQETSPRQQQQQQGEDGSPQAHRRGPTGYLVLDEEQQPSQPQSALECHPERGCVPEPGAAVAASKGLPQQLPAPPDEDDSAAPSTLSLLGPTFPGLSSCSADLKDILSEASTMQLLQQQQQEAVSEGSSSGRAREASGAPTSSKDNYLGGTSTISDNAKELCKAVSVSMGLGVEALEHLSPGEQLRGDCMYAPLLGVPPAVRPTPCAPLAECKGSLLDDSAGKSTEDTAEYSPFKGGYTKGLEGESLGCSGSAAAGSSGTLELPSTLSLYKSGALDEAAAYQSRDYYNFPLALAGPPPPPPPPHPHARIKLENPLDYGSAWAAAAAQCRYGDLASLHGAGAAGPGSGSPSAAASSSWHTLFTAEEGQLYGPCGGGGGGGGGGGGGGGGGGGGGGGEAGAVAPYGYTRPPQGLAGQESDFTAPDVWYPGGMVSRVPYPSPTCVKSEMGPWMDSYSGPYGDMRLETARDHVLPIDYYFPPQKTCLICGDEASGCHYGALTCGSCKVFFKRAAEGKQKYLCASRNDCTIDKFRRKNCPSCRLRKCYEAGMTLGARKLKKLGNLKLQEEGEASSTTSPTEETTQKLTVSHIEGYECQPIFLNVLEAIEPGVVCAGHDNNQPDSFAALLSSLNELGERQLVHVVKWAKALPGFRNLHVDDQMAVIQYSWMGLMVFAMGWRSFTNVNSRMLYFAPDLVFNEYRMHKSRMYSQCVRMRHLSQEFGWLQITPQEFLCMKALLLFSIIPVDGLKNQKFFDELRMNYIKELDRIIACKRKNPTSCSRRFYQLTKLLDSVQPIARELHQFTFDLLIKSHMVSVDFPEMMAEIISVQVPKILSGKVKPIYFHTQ
Target sequence in this assay (Q96SW2 whole entry, looked up): as the sequence (Q96SW2 whole entry, looked up) above

[5] = molecular target: T2, Protein cereblon/Androgen receptor; experiment: PROTAC activity at CRBN/AR in human LNCaP cells assessed as decrease in FKBP51 protein level incubated for 24 hrs by Western blot analysis; assay type: cell-based; conditions: dose 1-100 nM
Target sequence in this assay (P10275 whole entry, looked up): as the sequence (P10275 whole entry, looked up) above
Target sequence in this assay (Q96SW2 whole entry, looked up): as the sequence (Q96SW2 whole entry, looked up) above

CWR22R [6] = experiment: Induction of apoptosis in human 22Rv1 cells assessed as increase in cleaved PARP expression incubated for 24 hrs by Western blot analysis; assay type: functional, cell-based; conditions: dose 1-30 nM
CWR22R [7] = experiment: Induction of apoptosis in human 22Rv1 cells assessed as increase in cleaved caspase-3 expression incubated for 24 hrs by Western blot analysis; assay type: functional, cell-based; conditions: dose 1-30 nM
[8] = molecular target: T1, Protein cereblon/Eukaryotic peptide chain release factor GTP-binding subunit ERF3A; experiment: Molecular glue activity at CRBN/GSPT1 in human VCaP cells assessed as induction of GSPT1 degradation at 50 nM preincubated with MG132 followed by compound addition and measured after 12 hrs by Western blot analysis; assay type: cell-based
Target sequence in this assay (P15170 whole entry, looked up): as the sequence (P15170 whole entry, looked up) above
Target sequence in this assay (Q96SW2 whole entry, looked up): as the sequence (Q96SW2 whole entry, looked up) above

[9] = system: Protein cereblon/Androgen receptor (Homo sapiens), P10275+Q96SW2 [UNDEFINED MUTATION]; experiment: PROTAC activity at CRBN/Androgen receptor splice variant 7 in human 22Rv1 cells assessed as induction of AR-V7 degradation at 20 nM incubated for 18 hrs by Western blot analysis (reference value: 0%); assay type: cell-based
[10] = molecular target: T1, Protein cereblon/Eukaryotic peptide chain release factor GTP-binding subunit ERF3A; experiment: Binding affinity to CRBN/GSPT1 in human 22Rv1 cells assessed as ternary complex formation incubated for 6 hrs by co-immunoprecipitation based Western blot analysis; assay type: cell-based
Target sequence in this assay (P15170 whole entry, looked up): as the sequence (P15170 whole entry, looked up) above
Target sequence in this assay (Q96SW2 whole entry, looked up): as the sequence (Q96SW2 whole entry, looked up) above

[11] = Selectivity ratio of IC50 for antiproliferative activity against AR-independent human DU-145 cells assessed as cell growth inhibition to IC50 for antiproliferative activity against AR-dependent human 22Rv1 cells assessed as cell growth inhibition; assay type: functional
[12] = molecular target: T1, Protein cereblon/Eukaryotic peptide chain release factor GTP-binding subunit ERF3A; experiment: Molecular glue activity at CRBN/GSPT1 in human 22Rv1 cells assessed as induction of GSPT1 degradation by measuring maximal efficacy incubated for 24 hrs by Western blot analysis relative to control; assay type: cell-based
Target sequence in this assay (P15170 whole entry, looked up): as the sequence (P15170 whole entry, looked up) above
Target sequence in this assay (Q96SW2 whole entry, looked up): as the sequence (Q96SW2 whole entry, looked up) above

[13] = molecular target: T2, Protein cereblon/Androgen receptor; experiment: PROTAC activity at CRBN/AR in human 22Rv1 cells assessed as induction of AR degradation at 0.01 uM incubated for 24 hrs by Western blot analysis relative to control; assay type: cell-based
Target sequence in this assay (P10275 whole entry, looked up): as the sequence (P10275 whole entry, looked up) above
Target sequence in this assay (Q96SW2 whole entry, looked up): as the sequence (Q96SW2 whole entry, looked up) above

[14] = molecular target: T2, Protein cereblon/Androgen receptor; experiment: PROTAC activity at CRBN/AR in human 22Rv1 cells assessed as induction of AR degradation at 20 nM incubated for 12 hrs by Western blot analysis (reference value: 0 %); assay type: cell-based
Target sequence in this assay (P10275 whole entry, looked up): as the sequence (P10275 whole entry, looked up) above
Target sequence in this assay (Q96SW2 whole entry, looked up): as the sequence (Q96SW2 whole entry, looked up) above

[15] = molecular target: T1, Protein cereblon/Eukaryotic peptide chain release factor GTP-binding subunit ERF3A; experiment: Molecular glue activity at CRBN/GSPT1 in human VCaP cells assessed as induction of GSPT1 degradation at 50 nM preincubated with MLN4924 followed by compound addition and measured after 12 hrs by Western blot analysis; assay type: cell-based
Target sequence in this assay (P15170 whole entry, looked up): as the sequence (P15170 whole entry, looked up) above
Target sequence in this assay (Q96SW2 whole entry, looked up): as the sequence (Q96SW2 whole entry, looked up) above

[16] = molecular target: T2, Protein cereblon/Androgen receptor; experiment: PROTAC activity at CRBN/AR in human LNCaP cells assessed as induction of AR degradation incubated for 24 hrs by Western blot analysis; assay type: cell-based
[17] = molecular target: T2, Protein cereblon/Androgen receptor; experiment: PROTAC activity at CRBN/AR in human 22Rv1 cells assessed as induction of AR degradation at 0.1 uM incubated for 24 hrs by Western blot analysis relative to control; assay type: cell-based
Target sequence in this assay (P10275 whole entry, looked up): as the sequence (P10275 whole entry, looked up) above
Target sequence in this assay (Q96SW2 whole entry, looked up): as the sequence (Q96SW2 whole entry, looked up) above

[18] = molecular target: T1, Protein cereblon/Eukaryotic peptide chain release factor GTP-binding subunit ERF3A; experiment: Molecular glue activity at CRBN/GSPT1 in human 22Rv1 cells assessed as induction of GSPT1 degradation at 20 nM incubated for 1 hrs by Western blot analysis (reference value: 0 %); assay type: cell-based
Target sequence in this assay (P15170 whole entry, looked up): as the sequence (P15170 whole entry, looked up) above
Target sequence in this assay (Q96SW2 whole entry, looked up): as the sequence (Q96SW2 whole entry, looked up) above

[19] = Half-life in male ICR mouse at 2 mg/kg, iv by LC-MS/MS analysis; assay type: ADME, organism-based; conditions: in vivo
[20] = system: Protein cereblon/Androgen receptor (Homo sapiens), P10275+Q96SW2 [UNDEFINED MUTATION]; experiment: PROTAC activity at CRBN/Androgen receptor splice variant 7 in human 22Rv1 cells assessed as induction of AR-V7 degradation at […] preincubated with thalidomide followed by compound addition and measured after 12 hrs by Western blot analysis; assay type: cell-based
[21] = system: Protein cereblon/Androgen receptor (Homo sapiens), P10275+Q96SW2 [UNDEFINED MUTATION]; experiment: Binding affinity to CRBN/AR-V7 in human 22Rv1 cells assessed as ternary complex formation incubated for 6 hrs by co-immunoprecipitation based Western blot analysis; assay type: cell-based
CWR22R [22] = experiment: Cell cycle arrest in human 22Rv1 cells assessed as accumulation of cells at G1 phase at 1 nM incubated for 24 hrs by flow cytometric analysis (reference value: 49.7 %); assay type: functional
[23] = molecular target: T2, Protein cereblon/Androgen receptor; experiment: Binding affinity to CRBN/AR in human 22Rv1 cells assessed as ternary complex formation incubated for 6 hrs by co-immunoprecipitation based Western blot analysis; assay type: cell-based
Target sequence in this assay (P10275 whole entry, looked up): as the sequence (P10275 whole entry, looked up) above
Target sequence in this assay (Q96SW2 whole entry, looked up): as the sequence (Q96SW2 whole entry, looked up) above

[24] = molecular target: T2, Protein cereblon/Androgen receptor; experiment: PROTAC activity at CRBN/AR in human Enzalutamide-resistant LNCaP cells assessed as induction of androgen receptor degradation at 1 to 300 nM by Western blot analysis; assay type: cell-based; conditions: dose 1-300 nM
[25] = molecular target: T1, Protein cereblon/Eukaryotic peptide chain release factor GTP-binding subunit ERF3A; experiment: Molecular glue activity at CRBN/GSPT1 in human 22Rv1 cells assessed as induction of GSPT1 degradation at 20 nM incubated for 18 hrs by Western blot analysis (reference value: 0 %); assay type: cell-based
[26] = molecular target: T1, Protein cereblon/Eukaryotic peptide chain release factor GTP-binding subunit ERF3A; experiment: Molecular glue activity at CRBN/GSPT1 in human VCaP cells assessed as induction of GSPT1 degradation at 20 nM by Western blot analysis; assay type: cell-based; conditions: time 1-36 hrs
[27] = molecular target: T1, Protein cereblon/Eukaryotic peptide chain release factor GTP-binding subunit ERF3A; experiment: Molecular glue activity at CRBN/GSPT1 in human LNCaP cells assessed as induction of GSPT1 degradation by measuring maximal efficacy incubated for 24 hrs by Western blot analysis relative to control; assay type: cell-based
[28] = system: Protein cereblon/Androgen receptor (Homo sapiens), P10275+Q96SW2 [UNDEFINED MUTATION]; experiment: PROTAC activity at CRBN/Androgen receptor splice variant 7 in human 22Rv1 cells assessed as induction of AR-V7 degradation at 20 nM incubated for 36 hrs by Western blot analysis (reference value: 0%); assay type: cell-based
[29] = Oral bioavailability in male ICR mouse at 10 mg/kg by LC-MS/MS analysis; assay type: ADME, organism-based; conditions: in vivo
[30] = system: Protein cereblon/Androgen receptor (Homo sapiens), P10275+Q96SW2 [UNDEFINED MUTATION]; experiment: PROTAC activity at CRBN/Androgen receptor splice variant 7 in human 22Rv1 cells assessed as induction of AR-V7 degradation at 0.1 uM incubated for 24 hrs by Western blot analysis relative to control; assay type: cell-based
CWR22R [31] = experiment: Effect on androgen receptor splice variant 7 mRNA expression in human 22Rv1 cells at 1 to 10 nM incubated for 24 hrs by RT-PCR analysis; assay type: functional, cell-based; conditions: dose 1-10 nM
[32] = AUC in male ICR mouse at 10 mg/kg, po by LC-MS/MS analysis; assay type: ADME, organism-based; conditions: in vivo
[33] = molecular target: T2, Protein cereblon/Androgen receptor; experiment: PROTAC activity at CRBN/AR in human LNCaP cells assessed as decrease in TMPRSS2 mRNA level at 10 to 100 nM incubated for 24 hrs by qRT-PCR analysis; assay type: cell-based; conditions: dose 10-100 nM

Sequence of Protein cereblon/Androgen receptor (Homo sapiens), P10275+Q96SW2 [UNDEFINED MUTATION] (P10275 whole entry, looked up, change not shown, canonical isoform): as the sequence (P10275 whole entry, looked up) above
Sequence of Protein cereblon/Androgen receptor (Homo sapiens), P10275+Q96SW2 [UNDEFINED MUTATION] (Q96SW2 whole entry, looked up, change not shown, canonical isoform): as the sequence (Q96SW2 whole entry, looked up) above

With `COc1ccc(C(C)(C)c2cc(Cl)c(OCC3CCN(C(=O)CCCCCNc4ccc5c(c4)C(=O)N(C4CCC(=O)NC4=O)C5=O)CC3)c(C#N)c2)cc1` (stereo not given) the Activity [1] was “Dose-dependent-effect”, the DC50 [1] was 0.9 nM and the Activity (CWR22R [2]) was “Active”. The Activity [3] was “inactive”, the Activity [4] was 94.1% and the Activity [5] was “Dose-dependent-effect”. The Activity (CWR22R [6]) was “Dose-dependent-effect”, the Activity (CWR22R [7]) was “Dose-dependent-effect” and the Activity [8] was “inactive”. The Activity [9] was 91.4%, the Activity [10] was “Active” and the “Ratio IC50” value [11] was 802. It also gave an Emax [12] of 94.2%, an Activity [13] of 75.2% and an Activity [14] of 56.1%. The Activity [15] was “inactive”, the Activity [16] was “Dose-dependent-effect” and the DC50 [16] was 15.6 nM. The Activity [17] was 89.9%, the Activity [18] was 21.8% and the half-life [19] was 54 min. The Activity [20] was “inactive”, the Activity [21] was “Active” and the Activity (CWR22R [22]) was 50.3%. The Activity [23] was “Active”, the Activity [24] was “Active” and the Activity [25] was 98.4%. The Activity [26] was “Time-dependent-effect”, the Emax [27] was 96.5% and the Activity [28] was 98.3%. The bioavailability [29] was 11.2%, the Activity [30] was 76.7% and the Activity (CWR22R [31]) was “Minimal_effect”. For the same molecule, the AUC [32] was 1040 ng·h/mL and the Activity [33] was “Active”.

Source: ChEMBL document CHEMBL6177998, “Rational Design of Dual Degraders by Incorporating Molecular Glue Structural Features into PROTAC Degraders” (J Med Chem, 2025)
